Measured values: patent publication US6656942B2, “Orally active salts with tyrosine kinase activity” (Merck & Co., Inc., priority 2000, dated 2003)
Where a name gives a salt, the structure may show the parent alone. Blank lines part the entries; values can stand above or below the molecule they belong to.

Legend:
Assay type in all cases: physicochemical
[1] = Solubility of HCl salt 1-11D suspended in solvents for 7 days at room temperature; settings: RT for 7 days
Description: HCl salt 1-11D is also crystalline as witnessed by the X-ray powder diffraction pattern of the material, having multiple diffraction peaks between 5° and 30° 2-theta. […] (rate of 10° C./min). The compound is birefringent under plane polarized light. It is needle-shaped particles of approximately 5-25 micron. The solubility of salt 1-11D was measured in water and various organic solvents. Table VI below summarizes the solubility of the 1-11D suspended in various solvents for 7 days at room temperature.

[2] = Solubility and pH of salts of 4-9 prepared in situ; settings: for solubility: 1.05 mole equivalents of acid, 100 μL of water, spun overnight, HPLC; for pH: pH of the liquid residue of the sample
Description: Two forms of the mesylate salt were made: Salt 4-9A above and Salt 4-9B below. Numerous salts of 4-9 were prepared in situ and analyzed using the procedure outlined below,
3) The reagents were mixed with a Vortex mixer and left to stand at room temperature or warmed if needed to dissolve the solid.
4) 100 μL of water were added to suspend the solid.
5) Tube was then covered with aluminum foil and spun overnight on a rotator.
6) The tube was then spun in a centrifuge for 10 minutes at 10,000 RPM.
7) An aliquot was removed from the sample and dried with nitrogen overnight to produce the solid residue (salt) which was analyzed via microscopy and DCS.
8) The liquid residue from the remaining sample was used to measure pH and determine the concentration of salt by HPLC.

[3] = Solubility of crystalline mesylate salts 1-11A and 1-11B
Description: The amorphous mesylate salt was recrystallized from 50:50 Ethanol:THF to give a crystalline powder (Salt 1-11A). The X-ray powder diffraction pattern (XRPD) of the recrystallized mesylate salt 1-11A (FIG. 2) is indicative of crystalline material with multiple diffraction peaks between 5° and 30° 2-theta.
A second batch of crystalline mesylate salt (Salt 1-11B) was obtained by the following procdeure. To a stirred suspension of 1-11 (4.026 g, 9.22 mmol) in MeOH was slowly added at room temperature (RT) one equivalent of a 0.3M solution of methanesulfonic acid (30.73 mL). After all the solid had dissolved, the mixture was filtered into a flask and concentrated under reduced pressure while cooled to about 10° C. The resulting solid was suspended with 200 mL of ethylacetate, filtered, and dried to afford the mesylate salt. […] This crystalline form is different by XRPD than the one recrystallized from the amorphous salt in EtOH/THF (Salt 1-11A).

[4] = Aqueous solubility at room temperature, quantitated by HPLC; settings: water, room temperature, HPLC
Description: The free base 2-1 is a yellow powder. […] The crystals appear plate-like with most of the particles below 10 microns. […] The aqueous solubility was measured using HPLC to quantitate the compound in suspension.
The mesylate salt 2-1A is a yellow powder. […] A broad non-reversible endotherm centered around 87° C. is attributed to loss of solvent/moisture. The aqueous solubility was measured using HPLC to quantitate the compound.
The HCl salt 2-1B was also a yellow powder. […] This indicates the presence of both amorphous and crystalline material. […] The aqueous solubility was measured using HPLC to quantitate the compound.
The free base is a yellow powder which contains particles that are birefringent under polarized light indicating the presence of crystalline material. […] The aqueous solubility was measured using HPLC to quantitate the compound in an aqueous suspension.
The HCl salt is also a yellow solid, which contains particles that are birefringent under polarized light indicating the presence of crystalline material. […] The aqueous solubility was measured using HPLC to quantitate the compound in suspension.
The yellow, mesylate salt was examined under polarized light by optical microscopy. […] It is possible that the small amount of crystalline solid went undetected by optical microscopy. The aqueous solubility was measured using HPLC to quantitate the compound in suspension.
This mesylate salt 4-9A, which is a yellow powder, was examined under polarized light by optical microscopy. The crystals appear birefringent under polarized light indicating crystallinity. The crystals appear plate-like with few agglomerates. […] The aqueous solubility was measured using HPLC to quantitate the compound in suspension.

SMILES: CS(=O)(=O)N1CCN(Cc2ccc3[nH]c(-c4cc5ccccc5[nH]c4=O)cc3c2)CC1 [Salt 1-11D]
solubility ([1]; Aqueous ETOH): 4.34 mg/mL | solubility ([1]; Aqueous IPA): 3.99 mg/mL | solubility ([1]; Ethanol): 0.13 mg/mL | solubility ([1]; Isopropanol): 0.057 mg/mL | solubility ([1]; Water): 0.62 mg/mL

solubility [2]: 4.35 mg/mL | pH [2]: 1.40
SMILES: COCCN(C)CCOc1ccc2[nH]c(-c3cc4ccccc4[nH]c3=O)cc2c1 [Sulfate salt of 4-9]

solubility [2]: 22.0 mg/mL | pH [2]: 5.08
SMILES: COCCN(C)CCOc1ccc2[nH]c(-c3cc4ccccc4[nH]c3=O)cc2c1 [Mesylate 4-9B]

solubility [2]: 22.4 mg/mL | pH [2]: 2.34
SMILES: COCCN(C)CCOc1ccc2[nH]c(-c3cc4ccccc4[nH]c3=O)cc2c1 [HCl salt of 4-9]

SMILES: CS(=O)(=O)N1CCN(Cc2ccc3[nH]c(-c4cc5ccccc5[nH]c4=O)cc3c2)CC1 [Salt 1-11B]
solubility ([3]; Acetonitrile): 0.03 mg/mL | solubility ([3]; Isopropanol): 0.003 mg/mL | solubility ([3]; Water): 0.09 mg/mL

SMILES: CS(=O)(=O)N1CCN(Cc2ccc3[nH]c(-c4cc5ccccc5[nH]c4=O)cc3c2)CC1 [Salt 1-11A]
solubility ([3]; Acetonitrile): 0.063 mg/mL | solubility ([3]; Isopropanol): 0.02 mg/mL | solubility ([3]; Water): 0.173 mg/mL

solubility ([2]; pH 6.75, thermodynamic from solid, read-out: Solubility): 0.075 mg/mL | pH [2]: 6.75
SMILES: COCCN(C)CCOc1ccc2[nH]c(-c3cc4ccccc4[nH]c3=O)cc2c1 [4-9 Free Base, 3-(5-{2-[(2-methoxyethyl)(methyl)amino]ethoxy}-1H-indol-2-yl)-2(1H)-quinolinone]

aqueous solubility at room temperature [4]: 0.0635 mg/mL
SMILES: O=C(CO)N1CCN(Cc2ccc3[nH]c(-c4cc5ccccc5[nH]c4=O)cc3c2)CC1 [Salt 3-10, 3-{5-[4-(2-Hydroxy-ethanoyl)-piperazin-1-ylmethyl]-1H-indol-2-yl}-1H-quinolin-2-one]
